Data set [1] can be described thus: Determining formaldehyde in the gas phase above preservatives (Dräger tubes 0.2/a). In kind it is physicochemical. On the procedure:
1. Method of Determining Formaldehyde in the Gas Phase
(§1) • The determination of the formaldehyde content in the gas phase above various preservatives was carried out using Dräger tubes 0.2/a (No. 6733081) in accordance with the instructions for use from Dräger Safety AG & Co. KGaA (9th Edition, July 2001). For this purpose, about 100 g of the sample to be investigated were introduced into a 250 ml wide-necked beaker with a screw lid and left to stand, in the closed state, for at least 3 hours at room temperature. The measurement was read off after 2 strokes on the scale 0.5 to 5 ppm, n=10. […] 2. Method of Determining Ammonia (Amine) in the Gas Phase • The determination of the amine content in the gas phase above various preservatives was carried out using Dräger tubes 2/a (No. 6733231) in accordance with the instructions for use from Dräger Safety AG & Co. KGaA (9th Edition, July 2001). For this purpose, about 100 g of the sample to be investigated were introduced into a 250 ml wide-necked beaker with a screw lid and left to stand, in the closed state, for at least 3 hours at room temperature. The measurement was read off after one stroke on the scale. […] 3. Formaldehyde and Amine Emissions of Preservatives • In the gas phase of preservatives formulated as described below, using the methods described under 1. and 2., the following formaldehyde and amine concentrations were measured in the gas phase (Table 1): • Preservatives A, B and C were prepared by adding urea and monoethylene glycol dissolved in water to Grotan® OX and stripping off the water on a rotary evaporator (2 hours at 60° C. and 30 mbar). Preservative D (comparative) was prepared by adding monoethylene glycol to Grotan® OX.

Data set [2] is described as follows: Determining ammonia (amine) in the gas phase above preservatives (Dräger tubes 2/a). The class given is physicochemical. The following applies: amine as NH3. On the procedure: as §1

Regarding `CC1CN(CN2COC(C)C2)CO1` (stereo not drawn) [Example E, N,N′-methylenebis(5-methyloxazolidine)], the results for the “ppm of HCHO” value in data set [1] (After 2 weeks (gas phase)), in data set [1] (After 11 weeks (gas phase)) and in data set [1] (After 4 days (gas phase)) were 3-5 ppm, 0.7 ppm and 3 ppm, respectively. The ppm of amine in data set [2] (After 2 weeks (gas phase)) came out at 15 ppm; in data set [2] (After 11 weeks (gas phase)), 13 ppm; in data set [2] (After 4 days (gas phase)) it was 10 ppm.
